Data taken from US8309537B2, “Compositions and methods for treating colitis” (Aerpio Therapeutics Inc., priority 2009, dated 2012).
Structures can show the parent of a compound that is named as a salt. Where two headings read alike, the source gives them in different places.

Tests used:
[1] = Solubility of salts in distilled deionized water (HPLC); type: physicochemical
Method: The formulator can determine the solubility of the pharmaceutically acceptable salts of the disclosed inhibitors by any method desirable. The following is a non-limiting example of a procedure for evaluating the solubility of a salt of a disclosed inhibitor. A suspension of tert-butyl-{[1-(4-chlorobenzyl)-3-hydroxy-2-oxo-1,2-dihydropyridin-4-yl]methyl}-piperazine-1-carboxylate methanesulfonate (26.6 mg) in distilled deionized water (3.0 mL) is sonicated for 20 min with water bath temperature under 25° C. The suspension is filtered to remove any insoluble salt. The clear filtrate solution (200 μL) is diluted with distilled deionized water (800 μL) and subjected to HPLC analysis. The following are results for the pharmaceutically acceptable salts outlined in Table VII above.

[2] = system: Mouse Colon 26 tumor cells; experiment: Xenograft model: Mouse Colon 26 carcinoma in nude mice; type: in vivo; settings: Group 1: 5-FU 10 mg/kg IV once daily for five days alone; Day 27
Method: Xenograft Model: Mouse Colon 26 Carcinoma
Nude mice (Harlan Sprague Dawley, Inc., Indianapolis Ind.) were inoculated subcutaneously in the right flank with 0.1 mL of a 0.9% NaCl mixture containing a suspension of Mouse Colon 26 tumor cells (approx. 1×10^6 cells/mouse). Nine days following inoculation, the resulting tumors were measured using vernier calipers and tumor weight was calculated using the formula:
[formula] wherein the width can be taken as the smallest diameter and the length the largest diameter of the tumor. Twenty-four mice having tumors in the range of 75-144 mg were then selected. The mice were randomized into three groups of eight mice each. The body weight of each animal was at taken when the mice were pair-matched on day one and recorded. Body weights were then taken twice weekly thereafter in conjunction with tumor measurements. See Britten C. D. et al., “Enhanced antitumor activity of 6-hydroxymethyl-acylfulvene in combination with irinotecan and 5-fluorouracil in the HT29 human colon tumor xenograft model.” Cancer Res 1999; 59:1049-53, incorporated by reference herein in its entirety.
Beginning on Day 1, 5-fluorouracil (5-FU) was administered intravenously once daily for five days to each animal (Groups 1-3). […] The actual weight of each tumor was recorded.

Row | Compound | Solubility [1] | further results
1 | CC(C)(C)OC(=O)N1CCN(Cc2ccn(Cc3ccc(Cl)cc3)c(=O)c2O)CC1 [hydrochloride, tert-butyl-{[1-(4-chlorobenzyl)-3-hydroxy-2-oxo-1,2-dihydropyridin-4-yl]methyl}-piperazine-1-carboxylate] | 5900 µg/mL | –
2 | O=c1[nH]cc(F)c(=O)[nH]1 [Compound 5-FU, 5-fluorouracil] | – | Tumor Wgt. [2]: 1926.9 ± 284.9 mg
3 | CC(C)(C)OC(=O)N1CCN(Cc2ccn(Cc3ccc(Cl)cc3)c(=O)c2O)CC1 [p-toluenesulfonate, tert-butyl-{[1-(4-chlorobenzyl)-3-hydroxy-2-oxo-1,2-dihydropyridin-4-yl]methyl}-piperazine-1-carboxylate] | 2300 µg/mL | –
4 | CC(C)(C)OC(=O)N1CCN(Cc2ccn(Cc3ccc(Cl)cc3)c(=O)c2O)CC1 [Compound A41, tert-Butyl-{[1-(4-chlorobenzyl)-3-hydroxy-2-oxo-1,2-dihydropyridin-4-yl]methyl}piperazine-1-carboxylate] | – | Solubility ([1]; distilled deionized water, sonicated 20 min, bath under 25° C., filtrate by HPLC, listed as Free base): ~1 µg/mL
